Source: ChEMBL document CHEMBL1153643, “Design, synthesis and evaluation of aspirin analogues having an additional carboxylate substituent for antithrombotic activity” (Bioorg Med Chem Lett, 2009)
Activity calls are given as the source filed them. No cut-off for these calls is given here.

Legend:
Format in all cases: cell-free
[1] = target: Prostaglandin G/H synthase 1 (Homo sapiens) (UniProt P23219); test: Inhibition of PGHS-1 in human platelet rich plasma assessed as inhibition of arachidonic acid-induced platelet aggregation at 1000 um treated 5 min before arachidonic acid challenge by turbidimetry
Prostaglandin G/H synthase 1 (Homo sapiens), sequence (P23219 whole entry): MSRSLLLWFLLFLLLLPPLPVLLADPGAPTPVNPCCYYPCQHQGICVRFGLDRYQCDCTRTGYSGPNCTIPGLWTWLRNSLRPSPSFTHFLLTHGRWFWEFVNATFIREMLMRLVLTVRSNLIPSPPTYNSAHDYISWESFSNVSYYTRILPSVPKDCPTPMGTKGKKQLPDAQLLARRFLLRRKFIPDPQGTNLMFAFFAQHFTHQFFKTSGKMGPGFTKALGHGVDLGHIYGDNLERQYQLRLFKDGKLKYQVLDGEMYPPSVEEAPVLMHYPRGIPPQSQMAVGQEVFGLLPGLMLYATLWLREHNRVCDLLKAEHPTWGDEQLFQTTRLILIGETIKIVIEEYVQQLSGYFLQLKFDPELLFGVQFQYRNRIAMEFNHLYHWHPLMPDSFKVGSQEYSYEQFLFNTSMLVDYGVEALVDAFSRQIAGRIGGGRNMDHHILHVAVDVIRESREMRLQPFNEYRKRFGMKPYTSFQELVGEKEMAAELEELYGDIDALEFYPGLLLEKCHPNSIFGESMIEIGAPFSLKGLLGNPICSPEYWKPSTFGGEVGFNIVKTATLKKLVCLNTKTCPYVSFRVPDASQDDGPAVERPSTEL

[2] = target: Prostaglandin G/H synthase 1 (Homo sapiens) (UniProt P23219); test: Inhibition of PGHS-1 in human platelet rich plasma assessed as inhibition of U46619-induced platelet aggregation in human platelet rich plasma at 1000 um
[3] = target: Prostaglandin G/H synthase 1 (Homo sapiens) (UniProt P23219); test: Ratio of compound IC50 to aspirin IC50 for PGHS-1 in human platelet rich plasma assessed as inhibition of arachidonic acid-induced platelet aggregation

SMILES | Activity [1] | Activity [2] | Ratio IC50 [3]
CC(=O)Oc1c(C(=O)O)cccc1C(=O)CCCC(=O)O | inactive |  | 
CC(=O)Oc1c(CCCC(=O)O)cccc1C(=O)O | inactive |  | 
COC(=O)CCCCc1cccc(C(=O)OC)c1OC(C)=O |  | inactive | 15
CC(=O)Oc1c(CCCCC(=O)O)cccc1C(=O)O | inactive |  | 
